Results reported in ChEMBL document CHEMBL3885881, “DrugMatrix”.

Species: Rattus norvegicus
Experiment: DrugMatrix - Regimen: Daily Repeat
Assay type: toxicity, organism-based, Sprague-Dawley
Set-up: regimen Daily Repeat, gender Male, age 6-8 weeks
Details: in vivo, po, route oral GAVAGE, vehicle .5 % CMC; for ABSOLUTE BASOPHIL / ABSOLUTE EOSINOPHIL / ABSOLUTE LYMPHOCYTE / ABSOLUTE MONOCYTE / ABSOLUTE SEGMENTED NEUTROPHIL / BASOPHIL / EOSINOPHIL / ERYTHROCYTE COUNT / HEMATOCRIT / HEMOGLOBIN / LEUKOCYTE COUNT / LYMPHOCYTE / MEAN CORPUSCULAR HEMOGLOBIN / MEAN CORPUSCULAR HEMOGLOBIN CONCENTRATION / MEAN CORPUSCULAR VOLUME / MONOCYTE / NEUTROPHIL / NUCLEATED RED BLOOD CELLS / PLATELET COUNT: tissue Blood; for ALANINE AMINOTRANSFERASE / ALBUMIN / ALKALINE PHOSPHATASE / ASPARTATE AMINOTRANSFERASE / BLOOD UREA NITROGEN / CARBON DIOXIDE / CHLORIDE / CHOLESTEROL / CREATINE PHOSPHOKINASE / CREATININE / GLUCOSE / LACTATE DEHYDROGENASE / LIPASE / PHOSPHORUS / POTASSIUM / SODIUM / TOTAL BILIRUBIN / TOTAL PROTEIN / URIC ACID: tissue Plasma
[1] = 15 mg/kg, 72 h, dose level Low, time 3 day
[2] = 15 mg/kg, 120 h, dose level Low, time 5 day
[3] = 2000 mg/kg, 72 h, dose level High, time 3 day
[4] = 2000 mg/kg, 120 h, dose level High, time 5 day

SMILES: C[C@]12CCC(=O)C=C1CC[C@@H]1[C@@H]2CC[C@@]2(C)[C@H]1CC[C@]2(C)O [METHYLTESTOSTERONE]
- ABSOLUTE BASOPHIL [1]: 0 CELLS/uL
- ABSOLUTE EOSINOPHIL [1]: 240 CELLS/uL
- ABSOLUTE LYMPHOCYTE [1]: 14115 CELLS/uL
- ABSOLUTE MONOCYTE [1]: 60.67 CELLS/uL
- ABSOLUTE SEGMENTED NEUTROPHIL [1]: 1817.67 CELLS/uL
- BASOPHIL [1]: 0%
- EOSINOPHIL [1]: 1.33%
- ERYTHROCYTE COUNT [1]: 5.48 x10E6/uL
- HEMATOCRIT [1]: 33.23%
- HEMOGLOBIN [1]: 12.9 G/DL
- LEUKOCYTE COUNT [1]: 16.23 x10E3/uL
- LYMPHOCYTE [1]: 87%
- MEAN CORPUSCULAR HEMOGLOBIN [1]: 23.53 pg
- MEAN CORPUSCULAR HEMOGLOBIN CONCENTRATION [1]: 38.8 G/DL
- MEAN CORPUSCULAR VOLUME [1]: 60.73 fL
- MONOCYTE [1]: 0.33%
- NEUTROPHIL [1]: 11.33%
- NUCLEATED RED BLOOD CELLS [1]: 0 /100WBC
- PLATELET COUNT [1]: 1314.67 x10E3/uL
- ALANINE AMINOTRANSFERASE [1]: 47.33 u/L
- ALBUMIN [1]: 4.2 G/DL
- ALKALINE PHOSPHATASE [1]: 275.33 u/L
- ASPARTATE AMINOTRANSFERASE [1]: 99.33 u/L
- BLOOD UREA NITROGEN [1]: 18.67 mg/dL
- CARBON DIOXIDE [1]: 27 mmol/L
- CHLORIDE [1]: 103 MEQ/L
- CHOLESTEROL [1]: 75 mg/dL
- CREATINE PHOSPHOKINASE [1]: 593 u/L
- CREATININE [1]: 0.23 mg/dL
- GLUCOSE [1]: 141 mg/dL
- LACTATE DEHYDROGENASE [1]: 578.33 u/L
- LIPASE [1]: 9 u/L
- PHOSPHORUS [1]: 11.9 mg/dL
- POTASSIUM [1]: 5.93 MEQ/L
- SODIUM [1]: 145.33 MEQ/L
- TOTAL BILIRUBIN [1]: 0.2 mg/dL
- TOTAL PROTEIN [1]: 5.8 G/DL
- URIC ACID [1]: 1.47 mg/dL
- ABSOLUTE BASOPHIL [2]: 0 CELLS/uL
- ABSOLUTE EOSINOPHIL [2]: 157.67 CELLS/uL
- ABSOLUTE LYMPHOCYTE [2]: 14288.33 CELLS/uL
- ABSOLUTE MONOCYTE [2]: 45 CELLS/uL
- ABSOLUTE SEGMENTED NEUTROPHIL [2]: 1275.67 CELLS/uL
- BASOPHIL [2]: 0%
- EOSINOPHIL [2]: 1%
- ERYTHROCYTE COUNT [2]: 5.89 x10E6/uL
- HEMATOCRIT [2]: 35.43%
- HEMOGLOBIN [2]: 13.6 G/DL
- LEUKOCYTE COUNT [2]: 15.77 x10E3/uL
- LYMPHOCYTE [2]: 90.33%
- MEAN CORPUSCULAR HEMOGLOBIN [2]: 23.1 pg
- MEAN CORPUSCULAR HEMOGLOBIN CONCENTRATION [2]: 38.4 G/DL
- MEAN CORPUSCULAR VOLUME [2]: 60.17 fL
- MONOCYTE [2]: 0.33%
- NEUTROPHIL [2]: 8.33%
- NUCLEATED RED BLOOD CELLS [2]: 0 /100WBC
- PLATELET COUNT [2]: 1359 x10E3/uL
- ALANINE AMINOTRANSFERASE [2]: 52.33 u/L
- ALBUMIN [2]: 4.13 G/DL
- ALKALINE PHOSPHATASE [2]: 322.67 u/L
- ASPARTATE AMINOTRANSFERASE [2]: 91 u/L
- BLOOD UREA NITROGEN [2]: 13.67 mg/dL
- CARBON DIOXIDE [2]: 26.67 mmol/L
- CHLORIDE [2]: 103 MEQ/L
- CHOLESTEROL [2]: 77.33 mg/dL
- CREATINE PHOSPHOKINASE [2]: 245 u/L
- CREATININE [2]: 0.17 mg/dL
- GLUCOSE [2]: 149.33 mg/dL
- LACTATE DEHYDROGENASE [2]: 232.33 u/L
- LIPASE [2]: 9.33 u/L
- PHOSPHORUS [2]: 12.6 mg/dL
- POTASSIUM [2]: 6.3 MEQ/L
- SODIUM [2]: 143.83 MEQ/L
- TOTAL BILIRUBIN [2]: 0.17 mg/dL
- TOTAL PROTEIN [2]: 5.87 G/DL
- URIC ACID [2]: 1.73 mg/dL
- ABSOLUTE BASOPHIL [3]: 0 CELLS/uL
- ABSOLUTE EOSINOPHIL [3]: 184 CELLS/uL
- ABSOLUTE LYMPHOCYTE [3]: 15708.67 CELLS/uL
- ABSOLUTE MONOCYTE [3]: 378.67 CELLS/uL
- ABSOLUTE SEGMENTED NEUTROPHIL [3]: 2662 CELLS/uL
- BASOPHIL [3]: 0%
- EOSINOPHIL [3]: 1%
- ERYTHROCYTE COUNT [3]: 6.47 x10E6/uL
- HEMATOCRIT [3]: 38.33%
- HEMOGLOBIN [3]: 14.53 G/DL
- LEUKOCYTE COUNT [3]: 18.93 x10E3/uL
- LYMPHOCYTE [3]: 83%
- MEAN CORPUSCULAR HEMOGLOBIN [3]: 22.53 pg
- MEAN CORPUSCULAR HEMOGLOBIN CONCENTRATION [3]: 37.97 G/DL
- MEAN CORPUSCULAR VOLUME [3]: 59.27 fL
- MONOCYTE [3]: 2%
- NEUTROPHIL [3]: 14%
- NUCLEATED RED BLOOD CELLS [3]: 0 /100WBC
- PLATELET COUNT [3]: 1292 x10E3/uL
- ALANINE AMINOTRANSFERASE [3]: 50.33 u/L
- ALBUMIN [3]: 3.93 G/DL
- ALKALINE PHOSPHATASE [3]: 352.33 u/L
- ASPARTATE AMINOTRANSFERASE [3]: 71.67 u/L
- BLOOD UREA NITROGEN [3]: 13 mg/dL
- CARBON DIOXIDE [3]: 27.67 mmol/L
- CHLORIDE [3]: 101.33 MEQ/L
- CHOLESTEROL [3]: 14.67 mg/dL
- CREATINE PHOSPHOKINASE [3]: 215 u/L
- CREATININE [3]: 0.25 mg/dL
- GLUCOSE [3]: 123.33 mg/dL
- LACTATE DEHYDROGENASE [3]: 352 u/L
- LIPASE [3]: 7.33 u/L
- PHOSPHORUS [3]: 10.83 mg/dL
- POTASSIUM [3]: 6.24 MEQ/L
- SODIUM [3]: 142.83 MEQ/L
- TOTAL BILIRUBIN [3]: 0.5 mg/dL
- TOTAL PROTEIN [3]: 5.53 G/DL
- URIC ACID [3]: 1.17 mg/dL
- ABSOLUTE BASOPHIL [4]: 0 CELLS/uL
- ABSOLUTE EOSINOPHIL [4]: 0 CELLS/uL
- ABSOLUTE LYMPHOCYTE [4]: 14176.33 CELLS/uL
- ABSOLUTE MONOCYTE [4]: 40.33 CELLS/uL
- ABSOLUTE SEGMENTED NEUTROPHIL [4]: 2783.33 CELLS/uL
- BASOPHIL [4]: 0%
- EOSINOPHIL [4]: 0%
- ERYTHROCYTE COUNT [4]: 6.11 x10E6/uL
- HEMATOCRIT [4]: 36.23%
- HEMOGLOBIN [4]: 13.97 G/DL
- LEUKOCYTE COUNT [4]: 17 x10E3/uL
- LYMPHOCYTE [4]: 83%
- MEAN CORPUSCULAR HEMOGLOBIN [4]: 22.9 pg
- MEAN CORPUSCULAR HEMOGLOBIN CONCENTRATION [4]: 38.53 G/DL
- MEAN CORPUSCULAR VOLUME [4]: 59.37 fL
- MONOCYTE [4]: 0.33%
- NEUTROPHIL [4]: 16.67%
- NUCLEATED RED BLOOD CELLS [4]: 0.33 /100WBC
- PLATELET COUNT [4]: 1295.33 x10E3/uL
- ALANINE AMINOTRANSFERASE [4]: 46 u/L
- ALBUMIN [4]: 3.83 G/DL
- ALKALINE PHOSPHATASE [4]: 370 u/L
- ASPARTATE AMINOTRANSFERASE [4]: 60 u/L
- BLOOD UREA NITROGEN [4]: 16.33 mg/dL
- CARBON DIOXIDE [4]: 26 mmol/L
- CHLORIDE [4]: 105 MEQ/L
- CHOLESTEROL [4]: 28.33 mg/dL
- CREATINE PHOSPHOKINASE [4]: 184.33 u/L
- CREATININE [4]: 0.2 mg/dL
- GLUCOSE [4]: 158.33 mg/dL
- LACTATE DEHYDROGENASE [4]: 186.67 u/L
- LIPASE [4]: 7.67 u/L
- PHOSPHORUS [4]: 12.33 mg/dL
- POTASSIUM [4]: 6.29 MEQ/L
- SODIUM [4]: 149.6 MEQ/L
- TOTAL BILIRUBIN [4]: 0.3 mg/dL
- TOTAL PROTEIN [4]: 6.03 G/DL
- URIC ACID [4]: 1.5 mg/dL
